In ChEMBL document CHEMBL5550109, “Synergistic therapeutics: Co-targeting histone deacetylases and ribonucleotide reductase for enhanced cancer treatment” (Eur J Med Chem, 2024):

Experiments:
[1] = system: HCT-116; experiment: Growth inhibition of human HCT-116 cells; assay type: functional; settings: pooled result: one value given for 3 cell lines, strains, targets or settings
[2] = target: T1, Ribonucleoside-diphosphate reductase subunit M2 (Homo sapiens, UniProt P31350); experiment: Inhibition of human recombinant RRM2
T1 sequence (P31350 whole entry): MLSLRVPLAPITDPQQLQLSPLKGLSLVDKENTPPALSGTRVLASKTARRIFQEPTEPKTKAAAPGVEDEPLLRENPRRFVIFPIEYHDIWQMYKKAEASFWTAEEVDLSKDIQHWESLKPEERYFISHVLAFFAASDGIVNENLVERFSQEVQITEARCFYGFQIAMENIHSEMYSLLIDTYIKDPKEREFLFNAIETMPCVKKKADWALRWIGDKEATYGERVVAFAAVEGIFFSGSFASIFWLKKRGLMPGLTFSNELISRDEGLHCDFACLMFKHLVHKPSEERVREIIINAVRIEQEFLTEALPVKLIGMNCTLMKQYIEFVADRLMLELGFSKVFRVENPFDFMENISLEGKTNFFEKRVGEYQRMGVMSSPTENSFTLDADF

GI50 [1] [µM]	IC50 [2] [µM]	SMILES
21.6	–	Cc1nc(N/N=C/c2ccc(Cl)cc2)sc1C(=O)NO
36.7	–	Cc1nc(N/N=C/c2ccccc2O)sc1C(=O)NO
–	601	NC(=O)NO [HYDROXYUREA]
23.9	–	Cc1nc(N/N=C/c2ccccc2)sc1C(=O)NO
> 50	–	COc1cccc(/C=N/Nc2nc(C)c(C(=O)NO)s2)c1
> 50	–	C/C(=N\Nc1nc(C)c(C(=O)NO)s1)c1ccccc1
20.8	–	Cc1nc(N/N=C/c2ccc(N(C)C)cc2)sc1C(=O)NO
32.8	–	COc1ccc(/C=N/Nc2nc(C)c(C(=O)NO)s2)cc1
> 50	–	C/C(=N\Nc1nc(C)c(C(=O)NO)s1)c1ccc(Cl)cc1
40.7	–	Cc1nc(N/N=C/c2ccc([N+](=O)[O-])cc2)sc1C(=O)NO
